In patent publication US20190183910A1, “ENHANCING DNA REPAIR AND PREVENTING AGING AND ITS CONSEQUENCES IN REPRODUCTIVE AND OTHER CELLS” (NEW YORK MEDICAL COLLEGE, priority 2016, published 2019):
Several values for one entry are separate records, joined by “and”; a condition that tells them apart may be missing. Identical values can stand only once.

Legend:
[1] = test system: oocytes; conditions: ex vivo (Morita et al., 2000; Tilly and Kolesnick, 2007); cited from earlier work
[2] = test system: mouse sperm; assay: Reactive oxygen species in mouse sperm; assay type: cell-based; conditions: as a result of S1P treatment
Procedure: (§1) Treatment was performed with genotoxic stress (1 mM H2O2), S1P (200 μM), and S1P with genotoxic stress and control in culture for one hour. Also, the use of an ATM inhibitor was utilized (10 μM) (KU-55593, Abcam) (Li et al., 2014). We assessed DNA damage, apoptosis, and chromatin integrity. We also studied the DNA DSB repair gene expression by qRT-PCR in sperm lysates.

[3] = test system: mouse sperm; assay: Susceptibility of DNA to denaturation by AO staining in mouse sperm; assay type: cell-based; conditions: as a result of S1P treatment
Procedure: as §1
DNA integrity of mouse sperm were assessed via flow cytometry using acridine orange (AO) staining (Hawley and Hawley, 2004). AO fluoresces green when attached to native DNA, and fluoresces red when attached to fragmented DNA. Basically, after induction of denaturation by heat or acid the denatured DNA (ssDNA) stains metachromatically red with AO while dsDNA stains green. When the sample has ≥50% green fluorescence, the sample is of good quality. Similarly, AO was used to assess sperm chromatin structure by measuring its intensity of fluorescence, which is the ratio of red/(red+green) yields the percentage of DNA fragmentation (also known as DNA fragmentation index, or DFI %).

[4] = test system: RAD50; assay: qRT-PCR DNA DSB repair gene expression in mouse sperm lysates, RAD50; assay type: cell-based; conditions: S1P treatment, no ATM inhibitor
Procedure: as §1
(§2) Sperm pellets previously snap-frozen in PBS were thawed. RNA was extracted using the trizol method (Rio et al., 2010). The quality and quantity of the RNA were measured with NanoDrop 2000 from Thermo Scientific. RNA (2 μg) from each sample was taken for reverse transcription with dTVN and N9 primers and SuperScript III reverse transcriptase, all procured from Invitrogen. The resulting cDNA was used to perform real-time qPCR with SYBR Green on an Applied Biosystems 7900HT Real-Time PCR machine was used. To determine the relative expression of various DNA repair genes in mouse sperm, we used the ΔΔCt method, which makes use of the expression of housekeeping genes. GAPDH was used as housekeeping gene. Primers were procured from Integrated DNA technologies (IDT) (Table 3).

[5] = test system: mouse sperm; assay: Alkaline comet assay on mouse sperm; assay type: cell-based; conditions: for percent tail DNA, alkaline comet: mouse sperm, n=9, mean±SEM
Procedure: as §1
Slides were prepared 48 hours prior to experimentation by coating normal glass microscope slides with 500 μl normal melting point agar (0.5% w/v in PBS) solution and left to dry at room temperature for no less than 48 hours. Then, 10 μl of mouse sperm suspension was mixed with 90 μl of 0.5% LMPA. Then this 100 μl solution was added to the NMPA-coated slides. Coverslips were added and slides were placed on a metallic tray on ice and in the dark for 5 minutes. The cover slips were removed and a 90 μl layer of LMPA was added. Cover slips were subsequently replaced before the LMPA hardened. Slides were then kept in the dark on ice again for another 5 minutes. After ten minutes, the cover slips were removed and slides were placed in staining jars containing ice cold lysing solution (2.5 M NaCl, 200 mM NaOH, 100 mM EDTA, 10 mM Trizma Base, 1% Triton X-100 and 10% DMSO [pH 10]) for 1.5 hours at 4° C. in a dark place.
After this lysis step, the slides were washed three times for 5 minutes with TE buffer (pH 8.0), and then placed flatly in the electrophoresis tank face up for 30 minutes to achieve the unwinding of the DNA. The alkaline electrophoresis buffer in this tank included 300 mM NaOH and 1 mM EDTA [pH13]. This incubation period was used to achieve the alkaline unwinding of the DNA. Electrophoresis was then performed at 25 V, 300 mA for 30 minutes. After this, slides were washed twice in neutralization buffer (0.4 M Tris, pH 7.5) for 5 minutes each. Before analysis could occur, the sperm within the slides needed to be fixed by draining the slides well on paper towels and then subjecting them to two 10 minute washes in ethanol, and then air drying at room temperature for 5 minutes. Ethidium bromide (50 μl at 10 μg/ml in water) was then added on the slide, and sealed with a cover slip. Slides were kept moist, wrapped in aluminum foil to prevent light exposure, and stored at 4° C. until analysis (Williams et al., 2014).
Slides from both alkaline and neutral comets were imaged by fluorescence microscopy using a Nikon OPTIPHOT microscope. ImageJ was used for comet assay analysis, which calculated tail length, tail moment, and % of DNA in the tail. […] To analyze the slides, an oval around the sperm head was drawn and calculated and then an oval around the sperm tail was drawn and calculated. […] It was calculated as the Pythagorean distance between two points. […]

[6] = test system: RAD51; assay: qRT-PCR DNA DSB repair gene expression in mouse sperm lysates, RAD51; assay type: cell-based
Procedure: as §1, §2

[7] = test system: mouse sperm; assay: Apoptosis by FLICA (activated caspases) in mouse sperm; assay type: cell-based; conditions: as a result of S1P treatment
Procedure: as §1
Levels of activated caspases were detected in mouse sperm samples using fluorescein-labelled inhibitors of caspases (FLICA). This cell-permeable and non-cytotoxic caspase inhibitor binds covalently to active caspases. The fluorogenic substrate becomes fluorescent on cleavage by the caspases. The inhibitors were used with the appropriate controls according to the kit instructions provided by the manufacturer (ImmunoChemistry Technologies). A 150-fold stock solution of the inhibitor was prepared in dimethylsulphoxide (DMSO). It was further diluted in phosphate-buffered saline (PBS) to yield a 30-fold working solution. Sperm samples (300 μl) were incubated at 37° C. for 1 hr with 10 μl of the working solution and subsequently washed twice with PBS. After labeling with FLICA, 1% propidium iodide (PI) in PBS was used to assess dead cells. All samples were analyzed directly by flow cytometry to detect caspase activity (Bedner et al., 2000; Darzynkiewicz et al., 2011).

[8] = test system: human sperm; assay: Alkaline comet assay on human sperm; assay type: cell-based; conditions: n=3, mean±SEM
[9] = test system: ATM; assay: qRT-PCR DNA DSB repair gene expression in mouse sperm lysates, ATM; assay type: cell-based
Procedure: as §1, §2

[10] = S1P with H2O2, without ATM inhibitor
[11] = S1P treatment, no ATM inhibitor
[12] = S1P with genotoxic stress, with ATM inhibitor, n=8, mean±SEM

CCCCCCCCCCCCC/C=C/[C@@H](O)[C@@H](N)COP(=O)(O)O [S1P, sphingosine 1 phosphate]
ceramide induced apoptosis in oocytes [1]: block ceramide induced apoptosis | reactive oxygen species [2]: no significant difference | susceptibility of DNA to denaturation by AO staining [3]: no significant difference | RAD50 expression (qRT-PCR) [4]: no significant difference | DNA damage, alkaline comet ([5]; S1P-treated mouse sperm with ATM inhibitor): no significant difference | percent tail DNA, alkaline comet ([5]; S1P alone, without ATM inhibitor): 16.79±0.89% | percent tail DNA, alkaline comet [5, 10]: 16.8±0.87% | RAD51 expression (qRT-PCR) [6, 11]: no significant difference | RAD51 expression (qRT-PCR) [6, 12]: 0.015±0.056 | percentage of apoptosis by FLICA [7]: no significant difference | percent tail DNA, alkaline comet ([8]; S1P with H2O2, with ATM inhibitor): 26.1±1.19% | percent tail DNA, alkaline comet [8, 10]: 13.2±0.51% and 13.2±1.25% | ATM expression (qRT-PCR) [9, 11]: no significant difference | ATM gene expression (qRT-PCR) [9, 12]: 0.042±0.011
